One data set addresses T1, human α-thrombin (Homo sapiens, UniProt P00734).
T1 construct: 50 μl human α-thrombin (Kordia); purchased Kordia
Nature of the data set: Determination of Ki for thrombin inhibition (chromogenic or fluorogenic substrate, Dixon). Format: biochemical. The settings on record: for KiTrypsin/KiThrombin: Example 8, selectivity quotient. How it is done: The Ki values are the average values of at least three calculations.
For determining the thrombin inhibiting effect of all reversibly binding inhibitors and inhibitor conjugates with inhibiting constants smaller than 1 nM, a fluorescence spectrometer (LS50B from the company Perkin Elmer) was used. […] The Ki values are the average values of at least three calculations.

In the next data set the target is T2, trypsin (Bos taurus, UniProt P00760).
T2 sequence (P00760 24-246): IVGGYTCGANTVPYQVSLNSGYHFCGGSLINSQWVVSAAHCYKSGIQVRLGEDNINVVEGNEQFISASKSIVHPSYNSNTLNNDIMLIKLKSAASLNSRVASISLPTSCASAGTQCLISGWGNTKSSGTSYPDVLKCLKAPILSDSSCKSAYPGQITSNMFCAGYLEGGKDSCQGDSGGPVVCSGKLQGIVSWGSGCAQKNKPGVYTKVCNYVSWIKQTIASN
Kind of data set: Ki values for trypsin, determined analogously. Format: biochemical. Here is the method: The Ki values for trypsin were determined analogously.
For optimizing the inhibitor conjugates, in particular of the following Examples 1 and 2, suitable groups R1 were sought which allow as strong a thrombin inhibition as possible. For examining the selectivity of the compounds, the inhibiting constants for trypsin were determined as well. The higher the quotient [KiTrypsin/KiThrombin], the more selectively the compound functions as a thrombin inhibitor. In order to facilitate the synthesis, this optimization was first carried out without coupling a polyalkylene glycol group to inhibitor molecules of formula (II) as listed in Table I. These compounds, which are active as thrombin inhibitors themselves, can be used as synthetic intermediates for the inhibitor conjugates of formula (I). As a central component, a glycyl-prolyl-dipeptide was consistently incorporated into the inhibitors.

The target in the next data set is plasmin (Homo sapiens, UniProt P00747). Kind of data set: Inhibiting constants with respect to plasmin. The settings on record: Example 8a table. Format: biochemical. An excerpt: (§1) For this reason, two selected representatives of the inhibitors without PEG described in Tables 1 and 2 and one PEG-coupled inhibitor were examined with respect to their inhibiting effect on these enzymes.
Chain of plasmin (P00747 581-810 limits assumed, species assumed): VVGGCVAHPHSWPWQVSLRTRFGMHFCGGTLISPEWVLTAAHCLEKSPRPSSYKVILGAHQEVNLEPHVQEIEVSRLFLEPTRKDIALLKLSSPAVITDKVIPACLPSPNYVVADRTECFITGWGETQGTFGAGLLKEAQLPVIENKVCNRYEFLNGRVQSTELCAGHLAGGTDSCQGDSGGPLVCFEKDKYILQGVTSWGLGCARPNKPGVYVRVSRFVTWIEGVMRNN
Chain of plasmin (P00747 97-580 partner limits assumed, species assumed): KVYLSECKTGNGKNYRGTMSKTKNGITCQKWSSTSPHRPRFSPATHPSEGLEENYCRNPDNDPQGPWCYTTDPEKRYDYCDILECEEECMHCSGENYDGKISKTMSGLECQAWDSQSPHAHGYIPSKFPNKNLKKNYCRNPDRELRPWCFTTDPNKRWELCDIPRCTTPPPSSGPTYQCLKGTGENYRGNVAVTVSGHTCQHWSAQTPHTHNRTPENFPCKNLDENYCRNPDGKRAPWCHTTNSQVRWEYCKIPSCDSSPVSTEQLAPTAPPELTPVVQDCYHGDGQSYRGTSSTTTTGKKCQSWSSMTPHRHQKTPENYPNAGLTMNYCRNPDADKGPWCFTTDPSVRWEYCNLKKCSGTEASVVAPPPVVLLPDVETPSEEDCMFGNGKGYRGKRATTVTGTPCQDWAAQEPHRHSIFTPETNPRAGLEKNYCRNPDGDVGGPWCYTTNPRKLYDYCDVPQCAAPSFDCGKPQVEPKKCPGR
(§2) Inhibiting constants of selected inhibitors with respect to the enzymes thrombin, plasmin, urokinase and tPA (values given in nM).

The target in the next data set is urokinase (Homo sapiens, UniProt P00749). Kind of data set: Inhibiting constants with respect to urokinase. Format: biochemical. The note with it: Example 8a table.
Source text: as §1, §2

The next data set addresses tPA (Homo sapiens, UniProt P00750). Nature of the data set: Inhibiting constants with respect to tPA. Format: biochemical. The settings on record: Example 8a table.
Source text: as §1, §2

Data set [1] has as its target T3, thrombin (Homo sapiens, UniProt P00734). The note with it: taken from the literature, cited from earlier work.
For data set [2], the target named is T3, thrombin. Kind of data set: Kinetic constants of chloromethyl ketone inhibitors (method of Stein and Trainor). Format: biochemical. The settings on record: chloromethyl ketone inhibitor; for Ki: read-out: Kii.
A short description of data set [3]: Elimination of the inhibitor conjugates in rats (blood level, urine recovery, clotting test). Format: in vivo. The note with it: female, Wistar, rat; for half-life: blood. How it is done: Preliminary remarks: Female Wistar rats with a body weight between 150 to 250 g were used for the experiments. The animals were kept under conventional conditions and were provided with standard food and water ad libitum. Anaesthetization was carried out with 1.5 g ethylurethane per kg of body weight. Then the right and left jugular veins were prepared and catheters were inserted so that blood could be drawn at different points of time. The urine was collected throughout the entire test period and the inhibitor concentration was determined by means of a clotting test.

[4] abbreviates: Example 8, read-out: KiThrombin.
[5] abbreviates: Table I, formula (II) compounds.

The values that follow come from patent publication US7407982B2, “Oligo or polyalkylene glycol-coupled thrombin inhibitors” (HaemoSys GmbH, priority 2001, dated 2008).

As a reminder, the kinact is the maximal first-order rate at which the target is inactivated.

Where two headings read alike, the source gives them in different places.

Chain of tPA (P00750 36-562, species assumed): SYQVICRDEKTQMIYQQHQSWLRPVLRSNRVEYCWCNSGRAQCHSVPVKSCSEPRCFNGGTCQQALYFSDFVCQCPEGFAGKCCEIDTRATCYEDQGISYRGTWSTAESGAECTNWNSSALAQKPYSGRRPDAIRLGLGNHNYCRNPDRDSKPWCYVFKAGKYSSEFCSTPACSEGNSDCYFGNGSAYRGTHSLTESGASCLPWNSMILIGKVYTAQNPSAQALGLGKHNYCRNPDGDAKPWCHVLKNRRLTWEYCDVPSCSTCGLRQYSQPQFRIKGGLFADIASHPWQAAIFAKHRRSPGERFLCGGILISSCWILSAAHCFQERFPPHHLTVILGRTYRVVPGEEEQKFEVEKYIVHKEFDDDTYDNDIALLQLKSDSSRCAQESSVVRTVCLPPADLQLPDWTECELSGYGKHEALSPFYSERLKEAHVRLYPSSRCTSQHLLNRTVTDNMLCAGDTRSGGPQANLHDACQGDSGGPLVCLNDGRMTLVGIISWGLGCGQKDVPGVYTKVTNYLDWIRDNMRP

At human α-thrombin, “4-methoxy-benzenesulfonyl-Asn(PEG2000-OMe)-Pro-4-amidinobenzylamide” displayed a KiTrypsin/KiThrombin of 174. Moreover, the Ki on human α-thrombin (setting [4]) was found to be 0.53 nM; at trypsin (Example 8, read-out: KiTrypsin), 92.5 nM; at plasmin, 33500 nM; on urokinase it was 157000 nM; on tPA, 599000 nM.
In the case of `COc1ccc(S(=O)(=O)NCC(=O)N2CCC[C@H]2C(=O)NCc2ccc(C(=N)N)cc2)cc1` [1c], the “Ki Trypsin/Ki Thrombin” value on human α-thrombin (Table 2, selectivity quotient) is given as 23.4; on human α-thrombin (Table I, selectivity quotient) it was 23.4. For the same molecule, the Ki worked out at 0.97 nM at human α-thrombin (setting [5]), 5800 nM on plasmin, 225000 nM at urokinase and 630 nM on tPA.
On to `NC(N)=NCCC[C@H](NC(=O)[C@@H]1CCCN1C(=O)[C@H](N)Cc1ccccc1)C(=O)CCl` [PPACK, D-Phe-Pro-Arg-CH2—Cl], for which, at thrombin [1], the Kinact/Ki was 4.4e+06 M⁻¹ s⁻¹ and the maximal inactivation rate constant (kinact) was 0.11 s⁻¹. Moreover, at thrombin [1] (read-out: Kii), the Ki is 25 nM.
For `N=C(N)NCCC[C@H](NC(=O)[C@@H]1CCCN1C(=O)[C@@H](CC1CCCCC1)NCC(=O)O)C(=O)CCl.O=C(O)C(F)(F)F.O=C(O)C(F)(F)F` [analogous non-PEG-coupled compound, H-d-N(CH2—COOH)Cha-Pro-Arg-CH2—Cl×2 trifluoroacetic acid, reference compound], at thrombin [2], the Kinact/Ki was 2.1e+07 M⁻¹ s⁻¹, the kinact worked out at 0.079 s⁻¹ and the Ki worked out at 3.8 nM.
Regarding `COc1ccc(S(=O)(=O)NC(CC(N)=O)C(=O)N2CCCC2C(=O)NCc2ccc(C(=N)N)cc2)cc1` (centres unmarked) [compound 50], the Ki at human α-thrombin (Table 2, formula (III) compounds) amounted to 0.36 nM; on plasmin, 17500 nM; on urokinase, 52000 nM; on tPA it was 47000 nM. In addition, the “Ki Trypsin/Ki Thrombin” value on human α-thrombin (Table 2, selectivity quotient) came out at 147.
As to `N=C(N)N1CCC(CNC(=O)[C@@H]2CCCN2C(=O)[C@@H](CC2CCCCC2)NCC(=O)O)CC1` [formula (IV)], the half-life in data set [3] (intravenous administration of 10 mg/kg) is approximately 0.275 h. Also, in data set [3] (urine, sc, rats, subcutaneous administration, read-out: cumulative percentage recovery in the urine), the dose excreted was approximately 58%.
For `N=C(N)N1CCC(CNC(=O)[C@@H]2CCCN2C(=O)[C@@H](CC2CCCCC2)NCC(=O)NCC2COCCOCCOCCOCCO2)CC1` (some centres unmarked) [inhibitor structure (VI)], the half-life in data set [3] (sc, rats, subcutaneous administration of 5 mg/kg) is approximately 5.83 h.
On human α-thrombin, “D-N(CH2—CO—NH-PEG5000-OMe)Cha-Pro-4-(amidomethyl)-N(amidino)piperidine×2 HCl” came in with a KiTrypsin/KiThrombin of 100. The Ki was 2.4 nM at human α-thrombin (setting [4]); 3.5 nM at human α-thrombin (setting [5]); 239 nM on trypsin (Example 8, read-out: KiTrypsin); 6.2 nM on trypsin (setting [5]). Further, the “Ki Trypsin/Ki Thrombin” value at human α-thrombin (Table I, selectivity quotient) amounted to 1.8.
Molecule “H-D-N(CH2—CO—NH-PEG5000-OMe)Cha-Pro-4-(amidino)benzylamide” came in with a KiTrypsin/KiThrombin on human α-thrombin of 3.5. In addition, the Ki stood at 0.97 nM on human α-thrombin (setting [4]); 1.9 nM at human α-thrombin (setting [5]); 3.4 nM at trypsin (Example 8, read-out: KiTrypsin); 3 nM at trypsin (setting [5]). The “Ki Trypsin/Ki Thrombin” value at human α-thrombin (Table I, selectivity quotient) is on record as 1.6.
For the molecule “H-d-N(CH2—CONH-PEG2000-OMe)Cha-Pro-Arg-CH2—Cl×2 trifluoroacetic acid”, the Ki on human α-thrombin (setting [5]) was determined as 3.8 nM; at trypsin (setting [5]), 3.7 nM; at thrombin [2], 10.6 nM. For the same molecule, the “Ki Trypsin/Ki Thrombin” value at human α-thrombin (Table I, selectivity quotient) is reported as 0.97. This molecule also registered a Kinact/Ki at thrombin [2] of 7.5e+06 M⁻¹ s⁻¹. Also, the maximal inactivation rate constant (kinact) at thrombin [2] was 0.08 s⁻¹.
